Assays:
[1] = Dog PK study of solid forms and formulations; format: in vivo, Beagle dogs
Protocol: Pharmacokinetic properties of various compositions prepared from the complexes may be assessed in male Sprague Dawley rats or male Beagle dogs, and compared to the properties of the free base compound. Rats are dosed daily with compound either by IV injections via surgically implanted jugular catheters or by oral gavage (PO). Each compound is prepared as a 20 mg/mL stock solution in dimethyl sulfoxide, which is further diluted to provide the dosing stock at the desired concentration for the IV or PO formulations. For IV dosing, the dosing stock is diluted into a 1:1:8 mixture of Solutol®:ethanol:water. For PO dosing, the dosing stock is diluted into 1% methylcellulose. In a cassette format, 5 compounds are diluted to 0.5 mg/mL each for IV dosing and 0.4 mg/mL each for PO dosing and dosed at 1 mg/kg (2 mL/kg) or 2 mg/kg (5 mL/kg), respectively. For IV dosed animals, tail vein blood samples are collected with lithium heparin anticoagulant at 5, 15, 30, and 60 minutes and 4, 8, and 24 hours post dosing each day. For PO dosed animals, tail vein blood samples are collected with lithium heparin anticoagulant at 30 minutes, 1, 2, 4, 8 and 24 hours post dosing each day. Dogs are dosed daily by oral capsules in a suitable formulation at 50 mg/mL. Cephalic vein blood samples are collected with lithium heparin anticoagulant at 30 minutes, 1, 2, 4, 8 and 24 hours post dosing each day. All samples are processed to plasma and frozen for later analysis of each compound by LC/MS/MS. Plasma levels as a function of time are plotted to assess the AUC (ng*hr/mL).
The arginine complex of N-[3-(5-chloro-1H-pyrrolo[2,3-b]pyridine-3-carbonyl)-2,4-difluoro-phenyl]-4-trifluoromethyl-benzenesulfonamide P-1021 was analyzed in a number of dog PK studies following the above or similar protocols. These were done primarily at Bridge Laboratories, Beijing, China, with one study done at Seventh Wave Laboratories LLC, Chesterfield, Mo. Plasma samples were analyzed to determine the plasma concentration (PPD Development, Madison, Wis.) at each time point from which the Cmax and AUC∞ were determined. In some instances, the materials are combined in the solvents indicated, and the solvent is removed by evaporation, or by spray drying where indicated. In these tables, unless indicated otherwise, the dose is mg/dog, and the Cmax/dose ((ng/mL)/(mg/kg)) and the AUC∞/dose ((ng*hr/mL)/(mg/kg)) are calculated assuming a 10 kg weight for the dogs.
This study was done at Seventh Wave, containers were provided with 13.259 g, 39.776 g or 66.301 g of this formulation and suspended in 360 mL of 1.5% Polysorbate 20 vehicle and dosed by oral gavage.
N-[3-(5-chloro-1H-pyrrolo[2,3-b]pyridine-3-carbonyl)-2,4-difluoro-phenyl]-4-trifluoromethyl-benzenesulfonamide P-1021 was analyzed in a dog PK study wherein the arginine complex of N-[3-(5-cyano-1H-pyrrolo[2,3-b]pyridine-3-carbonyl)-2,4-difluoro-phenyl]-4-trifluoromethyl-benzenesulfonamide P-1092 was also assessed.

[2] = target: B-Raf (Homo sapiens, UniProt P15056); test: Kinase activity assay, B-Raf; format: biochemical; conditions: read-out: activity toward kinase B-Raf, IC50
[3] = target: B-Raf V600E (Homo sapiens, UniProt P15056, V600E); test: Kinase activity assay, B-Raf V600E; format: biochemical; conditions: read-out: activity toward kinase B-Raf V600E, IC50
[4] = target: Btk (Homo sapiens, UniProt Q06187); test: Kinase activity assay, Btk
[5] = target: Fms (Homo sapiens, UniProt P07333); test: Kinase activity assay, Fms
[6] = target: Kdr (Homo sapiens, UniProt P35968); test: Kinase activity assay, Kdr
[7] = target: Kit (Homo sapiens, UniProt P10721); test: Kinase activity assay, Kit
[8] = target: Src (Homo sapiens, UniProt P12931); test: Kinase activity assay, Src
[9] = target: T1, TEC (Homo sapiens, UniProt P42680); test: Kinase activity assay, TEC
T1 sequence (P42680 1-631): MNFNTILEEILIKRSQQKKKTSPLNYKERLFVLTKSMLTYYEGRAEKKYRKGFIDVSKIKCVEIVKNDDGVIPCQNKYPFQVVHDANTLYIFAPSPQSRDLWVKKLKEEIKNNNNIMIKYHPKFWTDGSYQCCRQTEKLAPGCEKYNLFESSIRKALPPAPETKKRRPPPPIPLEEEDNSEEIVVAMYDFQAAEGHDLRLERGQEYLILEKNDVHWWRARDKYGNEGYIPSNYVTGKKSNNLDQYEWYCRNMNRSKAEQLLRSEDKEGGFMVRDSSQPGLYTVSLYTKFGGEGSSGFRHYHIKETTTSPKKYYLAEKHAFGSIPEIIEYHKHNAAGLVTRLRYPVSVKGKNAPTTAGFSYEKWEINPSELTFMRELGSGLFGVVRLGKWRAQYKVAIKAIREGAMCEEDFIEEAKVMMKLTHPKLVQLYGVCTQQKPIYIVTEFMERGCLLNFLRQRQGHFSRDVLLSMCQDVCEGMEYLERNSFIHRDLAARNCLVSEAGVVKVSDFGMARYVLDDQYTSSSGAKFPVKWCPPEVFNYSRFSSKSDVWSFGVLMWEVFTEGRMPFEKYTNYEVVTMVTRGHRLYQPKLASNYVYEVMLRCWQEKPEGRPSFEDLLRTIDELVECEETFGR

[10] = target: C-Raf (Homo sapiens, UniProt P04049); test: Kinase activity assay, C-Raf
[11] = target: PI3Kα (Homo sapiens, UniProt P42336); test: Kinase activity assay, PI3Kα
[12] = target: MAP4K4 (Homo sapiens, UniProt O95819); test: Kinase activity assay, MAP4K4
[13] = Table 5B, forms of P-1021, dog, dose 150 mg/dog, 10 kg weight assumed
[14] = test articles are solid forms of P-1021, dog, oral, 100 mg/dog, calculated assuming a 10 kg weight

Chain of PI3Kα (P42336 whole entry): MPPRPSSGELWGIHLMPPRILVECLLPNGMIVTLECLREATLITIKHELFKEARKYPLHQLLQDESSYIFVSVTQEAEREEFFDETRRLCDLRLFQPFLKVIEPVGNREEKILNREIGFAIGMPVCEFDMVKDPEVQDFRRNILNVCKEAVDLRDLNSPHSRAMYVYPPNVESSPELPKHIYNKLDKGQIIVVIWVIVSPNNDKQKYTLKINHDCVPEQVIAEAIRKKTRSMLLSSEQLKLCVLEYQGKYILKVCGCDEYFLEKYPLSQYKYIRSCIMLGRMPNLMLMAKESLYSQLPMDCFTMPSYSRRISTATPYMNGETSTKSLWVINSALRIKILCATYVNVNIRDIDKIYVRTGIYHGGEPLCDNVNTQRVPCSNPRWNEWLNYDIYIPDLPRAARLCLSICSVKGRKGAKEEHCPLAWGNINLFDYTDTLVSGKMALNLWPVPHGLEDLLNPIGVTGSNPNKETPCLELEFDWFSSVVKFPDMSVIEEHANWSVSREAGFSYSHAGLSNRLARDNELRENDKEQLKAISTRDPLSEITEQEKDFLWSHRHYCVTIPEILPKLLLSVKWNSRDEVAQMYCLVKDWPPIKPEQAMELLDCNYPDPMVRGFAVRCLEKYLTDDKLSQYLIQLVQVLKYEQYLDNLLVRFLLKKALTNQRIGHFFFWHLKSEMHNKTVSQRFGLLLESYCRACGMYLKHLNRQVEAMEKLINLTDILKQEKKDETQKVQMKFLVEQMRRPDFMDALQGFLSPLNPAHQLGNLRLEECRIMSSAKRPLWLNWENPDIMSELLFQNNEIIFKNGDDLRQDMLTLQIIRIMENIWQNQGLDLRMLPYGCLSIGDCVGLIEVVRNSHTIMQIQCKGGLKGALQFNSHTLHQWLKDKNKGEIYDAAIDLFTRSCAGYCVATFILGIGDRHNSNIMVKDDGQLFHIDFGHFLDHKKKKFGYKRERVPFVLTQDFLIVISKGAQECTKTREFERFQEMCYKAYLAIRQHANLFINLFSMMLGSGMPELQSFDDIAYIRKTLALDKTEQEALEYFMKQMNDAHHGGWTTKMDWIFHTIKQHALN
Chain of PI3Kα (P27986 whole entry partner): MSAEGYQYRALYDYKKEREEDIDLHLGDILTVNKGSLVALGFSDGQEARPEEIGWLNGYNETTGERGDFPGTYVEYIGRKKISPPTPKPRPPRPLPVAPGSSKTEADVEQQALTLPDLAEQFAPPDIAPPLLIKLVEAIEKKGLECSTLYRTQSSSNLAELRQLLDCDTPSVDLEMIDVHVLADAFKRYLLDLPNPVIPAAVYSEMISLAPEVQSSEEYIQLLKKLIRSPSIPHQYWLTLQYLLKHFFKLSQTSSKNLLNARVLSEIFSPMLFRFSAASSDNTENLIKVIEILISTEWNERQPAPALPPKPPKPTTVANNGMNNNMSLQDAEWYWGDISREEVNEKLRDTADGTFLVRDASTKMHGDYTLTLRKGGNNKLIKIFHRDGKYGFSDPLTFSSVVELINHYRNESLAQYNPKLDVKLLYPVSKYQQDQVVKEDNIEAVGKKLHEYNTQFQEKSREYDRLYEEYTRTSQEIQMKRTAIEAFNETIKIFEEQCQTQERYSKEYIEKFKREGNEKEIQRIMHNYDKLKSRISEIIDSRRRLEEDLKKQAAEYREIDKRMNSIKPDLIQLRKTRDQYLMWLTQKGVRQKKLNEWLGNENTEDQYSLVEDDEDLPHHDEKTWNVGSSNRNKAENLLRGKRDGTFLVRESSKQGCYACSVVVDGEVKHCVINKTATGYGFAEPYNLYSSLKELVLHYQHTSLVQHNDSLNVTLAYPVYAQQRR
Chain of B-Raf V600E (P15056 whole entry V600E): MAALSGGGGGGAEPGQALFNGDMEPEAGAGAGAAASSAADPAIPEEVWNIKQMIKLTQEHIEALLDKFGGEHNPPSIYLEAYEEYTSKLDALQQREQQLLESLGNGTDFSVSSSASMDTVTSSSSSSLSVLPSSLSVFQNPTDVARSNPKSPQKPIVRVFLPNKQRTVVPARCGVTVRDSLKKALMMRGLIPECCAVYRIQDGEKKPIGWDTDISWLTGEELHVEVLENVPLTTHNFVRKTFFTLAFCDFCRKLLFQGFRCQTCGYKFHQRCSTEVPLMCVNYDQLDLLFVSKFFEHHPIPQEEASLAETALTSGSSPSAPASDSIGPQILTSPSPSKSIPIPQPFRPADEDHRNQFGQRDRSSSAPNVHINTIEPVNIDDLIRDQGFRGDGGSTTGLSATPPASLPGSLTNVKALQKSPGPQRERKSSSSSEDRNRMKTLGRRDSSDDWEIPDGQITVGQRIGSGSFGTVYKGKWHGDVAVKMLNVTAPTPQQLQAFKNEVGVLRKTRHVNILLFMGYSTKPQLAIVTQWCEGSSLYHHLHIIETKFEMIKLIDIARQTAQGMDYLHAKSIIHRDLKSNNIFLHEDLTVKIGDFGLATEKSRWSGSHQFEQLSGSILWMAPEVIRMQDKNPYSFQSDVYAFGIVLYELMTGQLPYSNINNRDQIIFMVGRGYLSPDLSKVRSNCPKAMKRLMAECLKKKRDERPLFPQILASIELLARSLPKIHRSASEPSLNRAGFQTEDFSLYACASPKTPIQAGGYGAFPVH
Chain of Kit (P10721 26-976): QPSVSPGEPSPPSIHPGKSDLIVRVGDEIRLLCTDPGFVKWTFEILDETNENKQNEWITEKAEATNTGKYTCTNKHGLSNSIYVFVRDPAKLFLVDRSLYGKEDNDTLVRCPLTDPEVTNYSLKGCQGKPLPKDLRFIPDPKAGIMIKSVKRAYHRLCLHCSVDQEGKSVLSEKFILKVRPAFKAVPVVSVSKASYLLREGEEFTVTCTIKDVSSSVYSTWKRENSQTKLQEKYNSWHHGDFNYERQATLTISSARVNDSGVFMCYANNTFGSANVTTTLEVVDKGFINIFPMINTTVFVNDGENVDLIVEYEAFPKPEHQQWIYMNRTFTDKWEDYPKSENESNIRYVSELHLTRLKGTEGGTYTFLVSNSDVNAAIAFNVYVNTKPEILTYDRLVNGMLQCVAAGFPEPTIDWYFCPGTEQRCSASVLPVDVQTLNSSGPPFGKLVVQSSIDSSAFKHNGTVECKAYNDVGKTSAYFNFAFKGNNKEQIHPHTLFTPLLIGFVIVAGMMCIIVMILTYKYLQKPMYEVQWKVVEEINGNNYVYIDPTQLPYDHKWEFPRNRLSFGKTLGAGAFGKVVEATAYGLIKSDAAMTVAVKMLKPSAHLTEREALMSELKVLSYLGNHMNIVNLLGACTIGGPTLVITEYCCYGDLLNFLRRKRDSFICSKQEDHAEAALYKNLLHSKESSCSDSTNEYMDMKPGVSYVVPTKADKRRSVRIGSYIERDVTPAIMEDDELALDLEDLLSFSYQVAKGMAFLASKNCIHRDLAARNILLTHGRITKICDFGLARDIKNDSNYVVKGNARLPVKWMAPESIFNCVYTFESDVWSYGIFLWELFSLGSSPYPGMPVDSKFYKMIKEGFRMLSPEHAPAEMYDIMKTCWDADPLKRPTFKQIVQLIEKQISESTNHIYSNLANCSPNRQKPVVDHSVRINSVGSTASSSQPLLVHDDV
Chain of C-Raf (P04049 whole entry): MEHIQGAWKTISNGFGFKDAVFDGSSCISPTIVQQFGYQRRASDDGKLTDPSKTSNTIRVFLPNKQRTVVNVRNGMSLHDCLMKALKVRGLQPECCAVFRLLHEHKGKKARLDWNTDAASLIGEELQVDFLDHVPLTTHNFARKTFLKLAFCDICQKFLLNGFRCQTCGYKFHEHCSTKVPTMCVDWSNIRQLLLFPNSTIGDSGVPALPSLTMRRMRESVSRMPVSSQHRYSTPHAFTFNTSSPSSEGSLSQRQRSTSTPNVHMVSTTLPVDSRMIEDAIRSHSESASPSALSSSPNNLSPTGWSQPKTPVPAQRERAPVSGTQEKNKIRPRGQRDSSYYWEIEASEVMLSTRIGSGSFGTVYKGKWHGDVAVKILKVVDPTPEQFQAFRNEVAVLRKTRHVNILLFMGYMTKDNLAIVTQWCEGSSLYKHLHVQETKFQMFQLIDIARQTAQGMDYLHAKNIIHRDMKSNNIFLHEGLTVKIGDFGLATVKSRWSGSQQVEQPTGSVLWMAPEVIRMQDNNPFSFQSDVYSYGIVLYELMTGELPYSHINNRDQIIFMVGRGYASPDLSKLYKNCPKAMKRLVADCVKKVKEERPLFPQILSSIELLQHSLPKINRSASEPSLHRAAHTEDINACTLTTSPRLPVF
Chain of B-Raf (P15056 whole entry): as the sequence (P15056 whole entry V600E) above, with E600V counted along it
Chain of Btk (Q06187 whole entry): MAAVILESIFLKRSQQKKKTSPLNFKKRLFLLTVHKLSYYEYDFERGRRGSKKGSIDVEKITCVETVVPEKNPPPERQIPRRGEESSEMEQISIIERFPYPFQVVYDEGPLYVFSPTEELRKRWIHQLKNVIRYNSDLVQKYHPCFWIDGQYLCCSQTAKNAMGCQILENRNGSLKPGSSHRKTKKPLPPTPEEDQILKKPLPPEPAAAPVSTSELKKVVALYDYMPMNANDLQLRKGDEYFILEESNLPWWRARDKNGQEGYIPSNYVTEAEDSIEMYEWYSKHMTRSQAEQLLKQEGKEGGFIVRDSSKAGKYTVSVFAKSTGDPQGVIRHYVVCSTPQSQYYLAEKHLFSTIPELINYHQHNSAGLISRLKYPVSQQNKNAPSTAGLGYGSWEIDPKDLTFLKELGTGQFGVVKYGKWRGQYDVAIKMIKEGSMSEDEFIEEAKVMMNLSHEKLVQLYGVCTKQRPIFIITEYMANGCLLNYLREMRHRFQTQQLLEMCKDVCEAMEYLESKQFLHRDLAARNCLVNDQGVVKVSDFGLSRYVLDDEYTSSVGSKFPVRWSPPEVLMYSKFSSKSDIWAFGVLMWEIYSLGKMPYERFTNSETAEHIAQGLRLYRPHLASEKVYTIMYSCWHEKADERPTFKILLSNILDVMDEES

SMILES	AUC∞/dose [1, 13]	Cmax/dose [1, 13]	AUC∞/dose [1, 14]	Cmax/dose [1, 14]	IC50 [2]	IC50 [3]	IC50 [4]	IC50 [5]	IC50 [6]	IC50 [7]	IC50 [8]	IC50 [9]	IC50 [10]	IC50 [11]	IC50 [12]
O=C(c1c(F)ccc(NS(=O)(=O)c2ccc(C(F)(F)F)cc2)c1F)c1c[nH]c2ncc(Cl)cc12 [Amorphous free base, N-[3-(5-chloro-1H-pyrrolo[2,3-b]pyridine-3-carbonyl)-2,4-difluoro-phenyl]-4-trifluoromethyl-benzenesulfonamide]	482 (ng*hr/mL)/(mg/kg)	33 (ng/mL)/(mg/kg)													
O=C(c1c(F)ccc(NS(=O)(=O)c2ccc(C(F)(F)F)cc2)c1F)c1c[nH]c2ncc(Cl)cc12 [Free base, N-[3-(5-chloro-1H-pyrrolo[2,3-b]pyridine-3-carbonyl)-2,4-difluoro-phenyl]-4-trifluoromethyl-benzenesulfonamide]	5,270 (ng*hr/mL)/(mg/kg)	482 (ng/mL)/(mg/kg)	8,031 (ng*hr/mL)/(mg/kg)	581.3 (ng/mL)/(mg/kg)											
O=C(c1c(F)ccc(NS(=O)(=O)c2ccc(C(F)(F)F)cc2)c1F)c1c[nH]c2ncc(Cl)cc12 [Mesylate, N-[3-(5-chloro-1H-pyrrolo[2,3-b]pyridine-3-carbonyl)-2,4-difluoro-phenyl]-4-trifluoromethyl-benzenesulfonamide]	2,849 (ng*hr/mL)/(mg/kg)	116 (ng/mL)/(mg/kg)													
COc1ncc(-c2cnc3[nH]cc(C(=O)c4c(F)ccc(NS(=O)(=O)c5cc(F)ccc5F)c4F)c3c2)cn1 [P-2042, N-{2,4-Difluoro-3-[5-(2-methoxy-pyrimidin-5-yl)-1H-pyrrolo[2,3-b]pyridine-3-carbonyl]-phenyl}-2,5-difluoro-benzenesulfonamide]					≤ 10 µM	≤ 10 µM	≤ 10 µM	≤ 10 µM	≤ 10 µM	≤ 10 µM	≤ 10 µM	≤ 10 µM	≤ 10 µM	≤ 10 µM	
COc1ncc(-c2cnc3[nH]cc(C(=O)c4c(F)ccc(NS(=O)(=O)c5c(F)cccc5F)c4F)c3c2)cn1 [P-2043, N-{2,4-Difluoro-3-[5-(2-methoxy-pyrimidin-5-yl)-1H-pyrrolo[2,3-b]pyridine-3-carbonyl]-phenyl}-2,6-difluoro-benzenesulfonamide]					≤ 10 µM	≤ 10 µM	≤ 10 µM	≤ 10 µM	≤ 10 µM	≤ 10 µM	≤ 10 µM	≤ 10 µM	≤ 10 µM	≤ 10 µM	
COc1ncc(-c2cnc3[nH]cc(C(=O)c4c(F)ccc(NS(=O)(=O)c5ccc(F)cc5F)c4F)c3c2)cn1 [P-2044, N-{2,4-Difluoro-3-[5-(2-methoxy-pyrimidin-5-yl)-1H-pyrrolo[2,3-b]pyridine-3-carbonyl]-phenyl}-2,4-difluoro-benzenesulfonamide]					≤ 10 µM	≤ 10 µM	≤ 10 µM	≤ 10 µM	≤ 10 µM	≤ 10 µM	≤ 10 µM	≤ 10 µM	≤ 10 µM	≤ 10 µM	
CS(=O)(=O)Nc1cccc(-c2cnc3[nH]cc(C(=O)c4cc(NS(=O)(=O)c5cccnc5)ccc4F)c3c2)c1 [P-2139, Pyridine-3-sulfonic acid {4-fluoro-3-[5-(3-methanesulfonylamino-phenyl)-1H-pyrrolo[2,3-b]pyridine-3-carbonyl]-phenyl}-amide]					≤ 10 µM	≤ 10 µM	≤ 10 µM	≤ 10 µM	≤ 10 µM	≤ 10 µM	≤ 10 µM	≤ 10 µM	≤ 10 µM	≤ 10 µM	≤ 10 µM
CS(=O)(=O)Nc1cccc(-c2cnc3[nH]cc(C(=O)c4cccc(NS(=O)(=O)c5cccnc5)c4)c3c2)c1 [P-2145, Pyridine-3-sulfonic acid {3-[5-(3-methanesulfonylamino-phenyl)-1H-pyrrolo[2,3-b]pyridine-3-carbonyl]-phenyl}-amide]					≤ 10 µM		≤ 10 µM	≤ 10 µM	≤ 10 µM	≤ 10 µM	≤ 10 µM	≤ 10 µM		≤ 10 µM	≤ 10 µM
COc1ncc(-c2cnc3[nH]cc(C(=O)c4c(F)ccc(NS(=O)(=O)CC(C)C)c4F)c3c2)cn1 [P-2322, 2-Methyl-propane-1-sulfonic acid {2,4-difluoro-3-[5-(2-methoxy-pyrimidin-5-yl)-1H-pyrrolo[2,3-b]pyridine-3-carbonyl]-phenyl}-amide]					≤ 10 µM	≤ 10 µM	≤ 10 µM	≤ 10 µM	≤ 10 µM	≤ 10 µM	≤ 10 µM	≤ 10 µM	≤ 10 µM	≤ 10 µM	
COc1ncc(-c2cnc3[nH]cc(C(=O)c4c(F)ccc(NS(=O)(=O)C5CCCCC5)c4F)c3c2)cn1 [P-2371, Cyclohexanesulfonic acid {2,4-difluoro-3-[5-(2-methoxy-pyrimidin-5-yl)-1H-pyrrolo[2,3-b]pyridine-3-carbonyl]-phenyl}-amide]					≤ 10 µM	≤ 10 µM	≤ 10 µM	≤ 10 µM	≤ 10 µM	≤ 10 µM	≤ 10 µM	≤ 10 µM	≤ 10 µM	≤ 10 µM	
